Results from patent US20260355332A1, “ANTIBODY-DRUG CONJUGATE, AND PREPARATION METHOD THEREFOR AND USE THEREOF” (MEDILINK THERAPEUTICS (SUZHOU) CO., LTD., priority 2022, published 2026).
“Also recorded” adds a separate entry of the source.

System: tumor cells
Assay: Assay 2: inhibitory activity of bioactive molecules on tumor cells (CCK8), overall
Format: cell-based
Conditions: Example 6.2; multiple tumor cell lines
Procedure: Firstly, tumor cells NUCG-4, PC-9, HT29, NCI-H358, KYSE520, A431, and A549 were cultured. The bioactive molecules or fragments of the present disclosure were co-cultured with the tumor cells, and then a CCK8 reagent (Dojindo China Co., Ltd., Cat: CKO4, Lot: JJ744) was added. Readings were taken using a microplate reader (manufacturer: Molecular Devices, model: SpectraMax M2) (detection wavelength: 450 nm) to determine the activity of dehydrogenase in the mitochondria, so as to evaluate the inhibitory effects of the bioactive molecules on cell proliferation.
The in vitro cell activity was assayed as follows: Tumor cells were digested by a conventional method using trypsin, collected in a tube, counted, resuspended in the corresponding assay medium (containing 2% FBS), and added to a 96-well plate at 5000-10000 cells/well. Bioactive molecules diluted with DMSO (starting at a concentration of 10 μM, with a 3-fold dilution (12 concentration gradients)) were added to the 96-well plate at 100 μL/well, and the plate was incubated at 37° C. with 5% CO2 for 3-4 days. Subsequently, 20 μL of CCK8 reagent was added to each well, and the mixture was allowed to react for 2-6 h. Readings were then taken using a microplate reader (detection wavelength: 450 nm).

Row | Structure (SMILES) | tumor cell-killing effect (in words)
1 | CC[C@@]1(O)C(=O)OCc2c1cc1n(c2=O)Cc2c-1nc1cc3c(cc1c2CCCO)OCO3 [Example A1.9, (S)-7-ethyl-7-hydroxy-14-(3-hydroxypropyl)-10,13-dihydro-11H-[1,3]dioxolo[4,5-g]pyrano[3′,4′:6,7]indolizino[1,2-b]quinoline-8,11(7H)-dione] | had tumor cell-killing effects; also recorded: stronger tumor-killing effect than Dxd in multiple tumor cell lines
2 | CC[C@@]1(O)C(=O)OCc2c1cc1n(c2=O)Cc2c-1nc1cc3c(cc1c2CCCOCNC(=O)CN)OCO3 [Example B1.14, (S)-2-amino-N-((3-(7-ethyl-7-hydroxy-8,11-dioxo-7,8,11,13-tetrahydro-10H-[1,3]dioxolo[4,5-g]pyrano[3′,4′:6,7]indolizino[1,2-b]quinolin-14-yl)propoxy)methyl)acetamide] | had tumor cell-killing effects
